In patent US20250161501A1, “Radiolabeled Compounds for Imaging of Fibroblast Activation Protein (FAP) and Treatment of FAP-Related Disorders” (Provincial Health Services Authority, priority 2022, published 2025):

What was measured:
[1] = target: T1, FAP (Homo sapiens, UniProt Q12884); conditions: literature [25]; cited from earlier work
T1 sequence (Q12884 1-760): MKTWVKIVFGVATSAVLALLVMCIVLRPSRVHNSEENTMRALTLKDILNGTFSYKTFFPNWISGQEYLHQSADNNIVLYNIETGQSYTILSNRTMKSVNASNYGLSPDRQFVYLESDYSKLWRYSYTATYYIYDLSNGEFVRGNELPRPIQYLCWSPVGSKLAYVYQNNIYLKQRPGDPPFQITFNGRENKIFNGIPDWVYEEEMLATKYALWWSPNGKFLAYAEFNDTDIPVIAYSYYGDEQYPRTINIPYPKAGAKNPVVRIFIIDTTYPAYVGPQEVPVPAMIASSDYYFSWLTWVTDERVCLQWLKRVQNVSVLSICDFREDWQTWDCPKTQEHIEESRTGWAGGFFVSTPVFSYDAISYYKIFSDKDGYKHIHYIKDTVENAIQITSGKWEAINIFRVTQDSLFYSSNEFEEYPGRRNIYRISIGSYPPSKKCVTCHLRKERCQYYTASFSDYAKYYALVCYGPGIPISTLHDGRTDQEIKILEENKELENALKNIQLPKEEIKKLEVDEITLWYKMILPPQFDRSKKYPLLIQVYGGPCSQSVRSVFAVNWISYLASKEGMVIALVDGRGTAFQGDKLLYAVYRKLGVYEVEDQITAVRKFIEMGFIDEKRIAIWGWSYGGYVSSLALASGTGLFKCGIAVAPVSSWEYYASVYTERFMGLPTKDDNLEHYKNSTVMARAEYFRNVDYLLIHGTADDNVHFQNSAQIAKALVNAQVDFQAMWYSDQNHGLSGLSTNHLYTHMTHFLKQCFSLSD

[2] = system: HEK293T:hFAP tumor xenografts; assay: Ex vivo biodistribution of 68Ga-labeled tracers in HEK293T:hFAP tumor-bearing mice; conditions: HEK293T:hFAP tumor xenograft mice, 1 h post-injection, Table 5, mean±SD
Procedure: All imaging and biodistribution studies were performed using male NOD-scidIL2Rg^null (NRG) mice and conducted according to the guidelines established by the Canadian Council on Animal Care and approved by Animal Ethics Committee of the University of British Columbia. For tumor inoculations, mice were anesthetized by inhalation with 2% isoflurane in oxygen and implanted subcutaneously with 7.5×10^6 HEK293T:hFAP or U87 cells below the left shoulder. Imaging and biodistribution studies were performed only after tumors grew to 5-8 mm in diameter.
For ex vivo biodistribution studies, mice were injected with -1-3 MBq of the ^68Ga-labeled tracer. Mice were allowed to recover and roam freely in the cages after injecting the tracer. […] The uptake in each organ/tissue was normalized to the injected dose and expressed as the percentage of the injected dose per gram of tissue (% ID/g).
Biodistribution data for ^68Ga-SB03178, ^68Ga-SB04033, and ^68Ga-FAPI-4 in mice bearing FAP tumor xenografts are presented in Tables 5-7. Data are presented as mean±SD % ID/g.

Row | Biodistribution: Adrenal Glands [2] [% ID/g] | Biodistribution: Blood [2] [% ID/g] | Biodistribution: Bone [2] [% ID/g] | Biodistribution: Brain [2] [% ID/g] | Biodistribution: Fat [2] [% ID/g] | Biodistribution: Heart [2] [% ID/g] | Biodistribution: Kidneys [2] [% ID/g] | Biodistribution: Liver [2] [% ID/g] | Biodistribution: Lungs [2] [% ID/g] | Biodistribution: Muscle [2] [% ID/g] | Biodistribution: Pancreas [2] [% ID/g] | Biodistribution: Spleen [2] [% ID/g] | Biodistribution: Stomach [2] [% ID/g] | Biodistribution: Testes [2] [% ID/g] | Biodistribution: Tumor [2] [% ID/g] | SMILES | Tumor uptake over time [1]
1 |  |  |  |  |  |  |  |  |  |  |  |  |  |  |  | N#C[C@@H]1CCCN1C(=O)CNC(=O)c1ccnc2ccc(OCCCN3CCN(C(=O)CN4CCN(CC(=O)O)CCN(CC(=O)O)CCN(CC(=O)O)CC4)CC3)cc12 [^68Ga-FAPI-2, metal not drawn] | reduced quickly over time
2 | 1.09 ± 0.31 | 1.09 ± 0.08 | 3.39 ± 1.03 | 0.05 ± 0.01 | 0.11 ± 0.02 | 0.35 ± 0.03 | 1.86 ± 0.10 | 0.37 ± 0.02 | 0.75 ± 0.09 | 0.68 ± 0.04 | 0.38 ± 0.04 | 0.57 ± 0.13 | 0.07 ± 0.02 | 0.29 ± 0.04 | 12.7±2.19 | N#C[C@@H]1CC(F)(F)CN1C(=O)CNC(=O)c1ccnc2ccc(OCCCN3CCN(C(=O)CN4CCN(CC(=O)O)CCN(CC(=O)O)CCN(CC(=O)O)CC4)CC3)cc12 [^68Ga-FAPI-4, metal not drawn, reference compound] | reduced quickly over time
